In US4006241A, “Certain halothien-2-yl 5-nitrothiazol-2-yl ketones and fungicidal composition” (Schering Aktiengesellschaft, priority 1973, dated 1977) one finds MIC data, which are given here for 6 compounds.

What all share (format): cell-based
One assay relates to Trichophyton rubrum. The assay can be described thus: minimum inhibitory concentration (MIC) against fungi, Trich. rubr. An excerpt: (§1) As examples of the effectiveness of the compounds of general Formula III against fungi, Table I indicates the minimum inhibitory concentrations (MIC) of several compounds. The comparison compounds are the known 2-Dimethylamino-6-(β-diethylaminoethoxy)-benzothiazole dihydrochloride and two 5-nitrothiazole derivatives substituted in the 2-position, which are known in the literature (J. Med. Chem. 12 [1969] 303).

For the next assay, the system named is Candida albicans. The assay can be described thus: minimum inhibitory concentration (MIC) against fungi, Cand. alb.
Excerpt: as §1

Assay [1] concerns Trichophyton mentagrophytes. As to the kind of experiment: minimum inhibitory concentration (MIC) against fungi, Trich. ment.
Excerpt: as §1

Values after ≈ are worked out from the molar mass of the structure shown.

What is called MIC is the smallest concentration in the dilution series that meets the test's criterion for growth inhibition. A high value points to a need for much substance. Consider `Cc1cc(C(=O)c2ncc([N+](=O)[O-])s2)c(C)c(C)c1O`, for which the minimum inhibitory concentration (MIC) worked out at 3.1 µg/mL (≈ 10.6 µM) against Trichophyton rubrum, 1.6 µg/mL (≈ 5.47 µM) in the assay on Candida albicans and 6.3 µg/mL (≈ 21.6 µM) in assay [1].
Taken in the same sequence, the figures for `Cc1ccc(C(=O)c2ncc([N+](=O)[O-])s2)c(F)c1C` were 3.1 µg/mL (≈ 11.1 µM), 1.6 µg/mL (≈ 5.71 µM) and 3.1 µg/mL (≈ 11.1 µM).
Consider `O=C(c1ccc(Br)s1)c1ncc([N+](=O)[O-])s1`, for which the MIC was found to be 1.6 µg/mL (≈ 5.01 µM) with Trichophyton rubrum, 0.4 µg/mL (≈ 1.25 µM) with Candida albicans and 1.6 µg/mL (≈ 5.01 µM) in assay [1].
With `CCOC(=N)c1ncc([N+](=O)[O-])s1`, the MIC (against Trichophyton rubrum; against Candida albicans; in assay [1]) was 50 µg/mL (≈ 249 µM) throughout.
Turning to `CC(=O)NN=Cc1ncc([N+](=O)[O-])s1`, the results for the minimum inhibitory concentration (MIC) (in the assay with Trichophyton rubrum; with Candida albicans; in assay [1]) were 12.5 µg/mL (≈ 58.4 µM), 25 µg/mL (≈ 117 µM) and 12.5 µg/mL (≈ 58.4 µM), respectively.
On to `CCN(CC)CCOc1ccc2nc(N(C)C)sc2c1.Cl.Cl` [2-Dimethylamino-6-(β-diethylaminoethoxy)-benzothiazole dihydrochloride], for which the minimal inhibitory concentration (MIC) is 50 µg/mL with Trichophyton rubrum, 300 µg/mL in the assay on Candida albicans and 50 µg/mL in assay [1].
